Legend:
Assay in all cases: area under concentration-response curve (viability) (AUC (a.u.)); higher = less active
Conditions in all cases: 48 h
CU-ACC1 = test system: CU-ACC1
Outline: (§1)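 Concentration-response curves were fitted to obtain AC50 and area under the curve, keeping inhibitory or non-responding curve classes only. Data came from CellTiter-Glo luminescence, normalised per plate to vehicle and empty-well controls, in three adrenocortical carcinoma cell lines. These were treated in 1,536-well plates with library compounds at 11 concentrations and read after 48 h.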

CU-ACC2 = test system: CU-ACC2
Outline: as §1

NCI-H295R = test system: NCI-H295R
Outline: as §1

## CNC(=O)CN1CCC(Oc2cc3c(Nc4cccc(Cl)c4F)ncnc3cc2OC)CC1
CU-ACC1
  area under concentration-response curve: 501
CU-ACC2
  area under concentration-response curve: 572
NCI-H295R
  area under concentration-response curve: 570

## CN1C2CCC1CC(OC(=O)C(CO)c1ccccc1)C2 (stereo not drawn)
CU-ACC1
  area under concentration-response curve: 408
CU-ACC2
  area under concentration-response curve: 396
NCI-H295R
  area under concentration-response curve: 396

## CCC1(C)CC(=O)NC1=O (stereo not drawn)
CU-ACC1
  area under concentration-response curve: 497
CU-ACC2
  area under concentration-response curve: 603
NCI-H295R
  area under concentration-response curve: 551

## CN1CCN(CCCNc2ncc(Cl)c(-c3cc4c(C(=O)NC5CC5)cccc4s3)n2)CC1
CU-ACC1
  area under concentration-response curve: 468
CU-ACC2
  area under concentration-response curve: 557
NCI-H295R
  area under concentration-response curve: 492

## O=[N+]([O-])c1ccc(-c2nc(-c3ccc(F)cc3)c(-c3ccncc3)[nH]2)cc1
CU-ACC1
  area under concentration-response curve: 498
CU-ACC2
  area under concentration-response curve: 567
NCI-H295R
  area under concentration-response curve: 489

## CC(C)(C)NCC(O)c1ccc(O)c(CO)c1 (stereo not drawn)
CU-ACC1
  area under concentration-response curve: 504
CU-ACC2
  area under concentration-response curve: 598
NCI-H295R
  area under concentration-response curve: 567

## Cc1c(-c2ccc(-c3ccccc3F)cc2)nc2ccc(F)cc2c1C(=O)O
CU-ACC1
  area under concentration-response curve: 595
CU-ACC2
  area under concentration-response curve: 620
NCI-H295R
  area under concentration-response curve: 521

## O=C(O)c1ccccc1C(=O)Nc1ccc(-c2ccccc2)cc1
CU-ACC1
  area under concentration-response curve: 514
CU-ACC2
  area under concentration-response curve: 580
NCI-H295R
  area under concentration-response curve: 491

## CC(=O)NC(C)c1ccc(Oc2ccc(OC(C)C)cc2)cc1 (stereo not drawn)
CU-ACC1
  area under concentration-response curve: 539
CU-ACC2
  area under concentration-response curve: 605
NCI-H295R
  area under concentration-response curve: 547

## C[S+](=O)([O-])c1ccc(Oc2cc(F)cc(C#N)c2)c2c1[C@H](O)C(F)(F)C2
CU-ACC1
  area under concentration-response curve: 571
CU-ACC2
  area under concentration-response curve: 645
NCI-H295R
  area under concentration-response curve: 603

## O=C(c1ccc(C(=O)N2CCC(N3CCCC3)CC2)c(Nc2ccccc2)c1)N1CCC(N2CCCC2)CC1
CU-ACC1
  area under concentration-response curve: 493
CU-ACC2
  area under concentration-response curve: 601
NCI-H295R
  area under concentration-response curve: 556

## CC1=CC=CC=C1N2\C(=N/C3=C(C(=CC=C3)C)C2=O)C[N]4C=NC5=C4N=CN=C5N
CU-ACC1
  area under concentration-response curve: 555
CU-ACC2
  area under concentration-response curve: 643
NCI-H295R
  area under concentration-response curve: 583

## CN1[C@@H]2CCC[C@H]1CC(NC(=O)c1nn(C)c3ccccc13)C2 (stereo partly drawn)
CU-ACC1
  area under concentration-response curve: 511
CU-ACC2
  area under concentration-response curve: 584
NCI-H295R
  area under concentration-response curve: 490

## CC1=CC=C2N=C(NC(=O)CS\C3=N\C4=C(\SCC4)C(=O)N3C5=CC=CC=C5)SC2=C1
CU-ACC1
  area under concentration-response curve: 538
CU-ACC2
  area under concentration-response curve: 633
NCI-H295R
  area under concentration-response curve: 558

## O=S(=O)([O-])CCS
CU-ACC1
  area under concentration-response curve: 539
CU-ACC2
  area under concentration-response curve: 518
NCI-H295R
  area under concentration-response curve: 551

## CN1C(=O)C(Cc2c[nH]c3ccccc23)NC1=S (stereo not drawn)
CU-ACC1
  area under concentration-response curve: 543
CU-ACC2
  area under concentration-response curve: 639
NCI-H295R
  area under concentration-response curve: 568

## CCOC(=O)N1CCN(/[N+]([O-])=N/Oc2ccc([N+](=O)[O-])cc2[N+](=O)[O-])CC1
CU-ACC1
  area under concentration-response curve: 544
CU-ACC2
  area under concentration-response curve: 644
NCI-H295R
  area under concentration-response curve: 521

## O=C1\C=C/C=C2/[C@H]3CNC[C@H](C3)CN12
CU-ACC1
  area under concentration-response curve: 593
CU-ACC2
  area under concentration-response curve: 663
NCI-H295R
  area under concentration-response curve: 576

## NCCc1ccc(O)c(O)c1
CU-ACC1
  area under concentration-response curve: 506
CU-ACC2
  area under concentration-response curve: 586
NCI-H295R
  area under concentration-response curve: 478

## COc1cc(NC(=O)c2ccc(-c3ccc(Cl)cc3)o2)cc(OC)c1
CU-ACC1
  area under concentration-response curve: 469
CU-ACC2
  area under concentration-response curve: 562
NCI-H295R
  area under concentration-response curve: 536

## CC(N[C@H]1C[C@@H]1c1ccccc1)c1ccc2c(c1)OCCO2 (stereo partly drawn)
CU-ACC1
  area under concentration-response curve: 432
CU-ACC2
  area under concentration-response curve: 453
NCI-H295R
  area under concentration-response curve: 432

## CN(C)CC(C)(C)CNc1nn2c(-c3ccccc3)nnc2cc1C1CCC1
CU-ACC1
  area under concentration-response curve: 473
CU-ACC2
  area under concentration-response curve: 566
NCI-H295R
  area under concentration-response curve: 469

## COc1nccc(-c2c(-c3ccc(F)cc3)ncn2C2CCNCC2)n1
CU-ACC1
  area under concentration-response curve: 429
CU-ACC2
  area under concentration-response curve: 482
NCI-H295R
  area under concentration-response curve: 423

## Cc1csc(NC(=O)c2sc3nc4c(c(C(F)(F)F)c3c2N)CCC4)n1
CU-ACC1
  area under concentration-response curve: 441
CU-ACC2
  area under concentration-response curve: 494
NCI-H295R
  area under concentration-response curve: 472

## Clc1cccc(-c2ccc(-c3nnc(CCCc4ccc5cccnc5n4)o3)cc2)c1
CU-ACC1
  area under concentration-response curve: 547
CU-ACC2
  area under concentration-response curve: 627
NCI-H295R
  area under concentration-response curve: 594

## O=C1c2ccccc2-c2n[nH]c3cccc1c23
CU-ACC1
  area under concentration-response curve: 494
CU-ACC2
  area under concentration-response curve: 587
NCI-H295R
  area under concentration-response curve: 530

## c1ccc2c(CN3CCNCC3)cccc2c1
CU-ACC1
  area under concentration-response curve: 525
CU-ACC2
  area under concentration-response curve: 647
NCI-H295R
  area under concentration-response curve: 580

## CC(=O)O[C@H]1C[C@@H]2CC[C@@H]3[C@H](CC[C@@]4(C)[C@H]3C[C@H]([N+]3(C)CCCCC3)[C@@H]4OC(C)=O)[C@@]2(C)C[C@@H]1[N+]1(C)CCCCC1
CU-ACC1
  area under concentration-response curve: 501
CU-ACC2
  area under concentration-response curve: 584
NCI-H295R
  area under concentration-response curve: 505

## C[C@]\12CC[C@H](O)CC1=C/CC3C2CC[C@@]\4(C)C3C\C=C4[N]5C=NC6=C5C=CC=C6 (stereo partly drawn)
CU-ACC1
  area under concentration-response curve: 540
CU-ACC2
  area under concentration-response curve: 516
NCI-H295R
  area under concentration-response curve: 548

## O=C1C[C@@H](c2ccc(O)cc2)Oc2cc(O)cc(O)c21
CU-ACC1
  area under concentration-response curve: 345
CU-ACC2
  area under concentration-response curve: 484
NCI-H295R
  area under concentration-response curve: 485

## O[C@H](C[C@H]1c2c(F)cccc2-c2cncn21)[C@H]1CC[C@H](O)CC1
CU-ACC1
  area under concentration-response curve: 553
CU-ACC2
  area under concentration-response curve: 616
NCI-H295R
  area under concentration-response curve: 536

## Cc1cc2c(cc1C1(c3ccc(C(=O)O)cn3)CC1)C(C)(C)CCC2(C)C
CU-ACC1
  area under concentration-response curve: 504
CU-ACC2
  area under concentration-response curve: 598
NCI-H295R
  area under concentration-response curve: 514

## C[C@@H]1CC(=O)Nc2cccc(-c3ccc4c(c3)c(-c3cnn(C)c3)nn4C)c2N1
CU-ACC1
  area under concentration-response curve: 517
CU-ACC2
  area under concentration-response curve: 602
NCI-H295R
  area under concentration-response curve: 550

## OC[C@H]1O[C@@H](S[C@@H]2O[C@H](CO)[C@H](O)[C@H](n3cc(-c4cccc(F)c4)nn3)[C@H]2O)[C@H](O)[C@@H](n2cc(-c3cccc(F)c3)nn2)[C@H]1O
CU-ACC1
  area under concentration-response curve: 507
CU-ACC2
  area under concentration-response curve: 590
NCI-H295R
  area under concentration-response curve: 547

## CCC(C)C(N)\C1=N\C(CS1)C(=O)N[C@@H](CC(C)C)C(=O)N[C@H](CCC(O)=O)C(=O)N[C@@H]([C@@H](C)CC)C(=O)N[C@H]2CCCCNC(=O)[C@H](CC(N)=O)NC(=O)[C@@H](CC(O)=O)NC(=O)[C@H](CC3=CN=C[NH]3)NC(=O)[C@@H](CC4=CC=CC=C4)NC(=O)[C@@H](NC(=O)[C@@H](CCCN)NC2=O)[C@@H](C)CC (stereo partly drawn)
CU-ACC1
  area under concentration-response curve: 593
CU-ACC2
  area under concentration-response curve: 682
NCI-H295R
  area under concentration-response curve: 582

## Cc1nc2c([nH]1)-c1ccccc1N(C(=O)c1ccc(NC(=O)c3ccccc3-c3ccccc3)cc1)CC2
CU-ACC1
  area under concentration-response curve: 437
CU-ACC2
  area under concentration-response curve: 542
NCI-H295R
  area under concentration-response curve: 487

## O=C(NCc1ccccc1)[C@H](Cc1ccccc1)NC(=O)[C@H]1O[C@@H]1C(=O)NCCc1ccc(O)cc1
CU-ACC1
  area under concentration-response curve: 495
CU-ACC2
  area under concentration-response curve: 557
NCI-H295R
  area under concentration-response curve: 524

## COc1ccc(Cl)c(Nc2nc3ccccc3nc2N[S+](=O)([O-])c2cccc(NC(=O)C(C)(C)N)c2)c1
CU-ACC1
  area under concentration-response curve: 459
CU-ACC2
  area under concentration-response curve: 536
NCI-H295R
  area under concentration-response curve: 439

## CNc1nc(Nc2cnn([C@H]3CCN(C4COC4)C[C@@H]3F)c2Cl)ncc1C(F)(F)F
CU-ACC1
  area under concentration-response curve: 562
CU-ACC2
  area under concentration-response curve: 604
NCI-H295R
  area under concentration-response curve: 566

## CC1(C)CCC(=C(\C1)C2=CC=C(Cl)C=C2)/CN3CCN(CC3)C4=CC(=C(C=C4)C(=O)N[S+]([O-])(=O)C5=CC=C(NCC6CCOCC6)C(=C5)[N+]([O-])=O)OC7=CN=C8[NH]C=CC8=C7
CU-ACC1
  area under concentration-response curve: 511
CU-ACC2
  area under concentration-response curve: 573
NCI-H295R
  area under concentration-response curve: 478

## CC(C)NCC(O)c1ccc(O)c(O)c1 (stereo not drawn)
CU-ACC1
  area under concentration-response curve: 487
CU-ACC2
  area under concentration-response curve: 548
NCI-H295R
  area under concentration-response curve: 502

## [2H]c1nc(C)nc([2H])c1-c1cc(NC[C@@H](C)c2cccc3c(C(=O)NC)ccnc23)ncn1
CU-ACC1
  area under concentration-response curve: 531
CU-ACC2
  area under concentration-response curve: 629
NCI-H295R
  area under concentration-response curve: 585

## CC[C@@H](Oc1cccc(CN(CCCOc2ccc(OC)cc2)c2nc3ccccc3o2)c1)C(=O)O
CU-ACC1
  area under concentration-response curve: 562
CU-ACC2
  area under concentration-response curve: 571
NCI-H295R
  area under concentration-response curve: 519

## CC(C)N(CCCNC(=O)Nc1ccc(C(C)(C)C)cc1)C[C@H]1O[C@@H](n2ccc3c(N)ncnc32)[C@H](O)[C@@H]1O
CU-ACC1
  area under concentration-response curve: 537
CU-ACC2
  area under concentration-response curve: 656
NCI-H295R
  area under concentration-response curve: 578

## O=C1CCC(N2C(=O)c3ccccc3C2=O)C(=O)N1 (stereo not drawn)
CU-ACC1
  area under concentration-response curve: 535
CU-ACC2
  area under concentration-response curve: 602
NCI-H295R
  area under concentration-response curve: 538

## CCC/1=C/C2=C(C(=O)N1CC(=O)C3=CC=CC=C3)C(=C([N]2C)C(=O)NC4CCN(CC4)C(=O)CO)OCC(F)(F)F
CU-ACC1
  area under concentration-response curve: 572
CU-ACC2
  area under concentration-response curve: 642
NCI-H295R
  area under concentration-response curve: 594

Source: the supplement of paper PMC10949913
